Results taken from patent US8471005B2 (Cephalon, Inc., priority 2008, dated 2013).
Read-outs that look alike come from different tables or passages of the source.

Tests used:
JAK2 = molecular target: T1, JAK2 (Homo sapiens, UniProt O60674); experiment: Recombinant Human JAK2 Kinase Assay (TRF); format: biochemical; details: read-out: JAK2 Potency
T1 construct: host or cells: baculovirus expression system
Method in brief: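 Europium-labelled PY100 antibody reported tyrosine phosphorylation of a Neutravidin-captured biotinyl 15-mer peptide by JAK2 (baculovirus-expressed, 15 ng/ml). Conditions: 20 mM HEPES pH 7.2, 0.2 μM ATP, 1 mM MnCl2, 0.1% BSA, DMSO 2.5% final, 20 min at room temperature.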

ALK = molecular target: T2, ALK (Homo sapiens, UniProt Q9UM73); experiment: ALK Kinase Assay (ELISA/TRF, PLC-γ substrate); format: biochemical; details: read-out: ALK Potency
T2 construct: host or cells: baculovirus expression system
T2 sequence (Q9UM73 19-1620): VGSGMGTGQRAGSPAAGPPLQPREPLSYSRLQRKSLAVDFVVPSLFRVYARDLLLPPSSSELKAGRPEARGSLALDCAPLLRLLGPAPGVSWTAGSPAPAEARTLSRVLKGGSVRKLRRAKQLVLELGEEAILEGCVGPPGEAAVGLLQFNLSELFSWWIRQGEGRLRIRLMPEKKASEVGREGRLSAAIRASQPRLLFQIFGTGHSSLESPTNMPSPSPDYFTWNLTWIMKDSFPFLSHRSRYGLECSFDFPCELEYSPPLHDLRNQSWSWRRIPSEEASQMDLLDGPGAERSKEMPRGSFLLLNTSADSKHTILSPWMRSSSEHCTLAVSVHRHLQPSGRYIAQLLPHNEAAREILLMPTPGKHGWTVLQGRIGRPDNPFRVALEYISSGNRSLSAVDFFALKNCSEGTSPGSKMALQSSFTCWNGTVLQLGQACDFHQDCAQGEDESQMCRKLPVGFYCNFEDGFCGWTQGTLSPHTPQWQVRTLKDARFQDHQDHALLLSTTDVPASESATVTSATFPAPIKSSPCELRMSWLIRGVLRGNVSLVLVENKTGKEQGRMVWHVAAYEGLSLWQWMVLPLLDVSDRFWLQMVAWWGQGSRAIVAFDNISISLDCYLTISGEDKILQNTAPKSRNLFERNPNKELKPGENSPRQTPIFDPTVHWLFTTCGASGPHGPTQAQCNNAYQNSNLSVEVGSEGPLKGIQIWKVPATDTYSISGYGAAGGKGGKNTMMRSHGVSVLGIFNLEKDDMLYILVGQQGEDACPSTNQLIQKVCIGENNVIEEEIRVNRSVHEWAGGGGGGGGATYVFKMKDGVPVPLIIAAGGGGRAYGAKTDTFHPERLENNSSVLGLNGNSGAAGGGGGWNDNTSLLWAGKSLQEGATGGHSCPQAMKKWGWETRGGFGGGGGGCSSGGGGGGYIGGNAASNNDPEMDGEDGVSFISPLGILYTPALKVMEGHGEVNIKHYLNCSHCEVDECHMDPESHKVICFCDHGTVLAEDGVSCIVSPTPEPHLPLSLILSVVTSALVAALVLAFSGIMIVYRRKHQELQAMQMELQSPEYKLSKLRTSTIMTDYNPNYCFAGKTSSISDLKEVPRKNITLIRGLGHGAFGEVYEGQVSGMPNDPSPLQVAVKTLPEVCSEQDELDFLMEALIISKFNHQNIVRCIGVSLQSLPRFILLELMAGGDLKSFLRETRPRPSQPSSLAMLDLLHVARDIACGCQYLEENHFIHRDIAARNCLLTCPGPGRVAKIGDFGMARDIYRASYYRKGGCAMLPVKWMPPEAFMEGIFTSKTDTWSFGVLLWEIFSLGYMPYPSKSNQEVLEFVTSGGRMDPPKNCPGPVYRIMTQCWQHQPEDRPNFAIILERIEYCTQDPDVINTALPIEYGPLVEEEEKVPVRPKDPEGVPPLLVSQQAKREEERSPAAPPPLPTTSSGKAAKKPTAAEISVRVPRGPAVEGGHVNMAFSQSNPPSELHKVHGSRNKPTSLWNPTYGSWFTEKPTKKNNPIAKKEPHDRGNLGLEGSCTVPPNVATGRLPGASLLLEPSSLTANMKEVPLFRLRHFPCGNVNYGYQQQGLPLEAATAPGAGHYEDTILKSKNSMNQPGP
Method in brief: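 IC50 values derive from percent inhibition plotted against log10 compound concentration and fitted to a variable-slope sigmoidal equation. The underlying reaction used 30 ng/ml ALK acting on immobilized PLC-γ (10 μg/mL in TBS) at 37° C for 15 minutes, read with Eu-N1 PT66 antibody.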

[1] = JAK2 kinase inhibition, 0.2 μM ATP
[2] = ALK kinase inhibition, 1 μM ATP

T1 sequence (O60674 whole entry): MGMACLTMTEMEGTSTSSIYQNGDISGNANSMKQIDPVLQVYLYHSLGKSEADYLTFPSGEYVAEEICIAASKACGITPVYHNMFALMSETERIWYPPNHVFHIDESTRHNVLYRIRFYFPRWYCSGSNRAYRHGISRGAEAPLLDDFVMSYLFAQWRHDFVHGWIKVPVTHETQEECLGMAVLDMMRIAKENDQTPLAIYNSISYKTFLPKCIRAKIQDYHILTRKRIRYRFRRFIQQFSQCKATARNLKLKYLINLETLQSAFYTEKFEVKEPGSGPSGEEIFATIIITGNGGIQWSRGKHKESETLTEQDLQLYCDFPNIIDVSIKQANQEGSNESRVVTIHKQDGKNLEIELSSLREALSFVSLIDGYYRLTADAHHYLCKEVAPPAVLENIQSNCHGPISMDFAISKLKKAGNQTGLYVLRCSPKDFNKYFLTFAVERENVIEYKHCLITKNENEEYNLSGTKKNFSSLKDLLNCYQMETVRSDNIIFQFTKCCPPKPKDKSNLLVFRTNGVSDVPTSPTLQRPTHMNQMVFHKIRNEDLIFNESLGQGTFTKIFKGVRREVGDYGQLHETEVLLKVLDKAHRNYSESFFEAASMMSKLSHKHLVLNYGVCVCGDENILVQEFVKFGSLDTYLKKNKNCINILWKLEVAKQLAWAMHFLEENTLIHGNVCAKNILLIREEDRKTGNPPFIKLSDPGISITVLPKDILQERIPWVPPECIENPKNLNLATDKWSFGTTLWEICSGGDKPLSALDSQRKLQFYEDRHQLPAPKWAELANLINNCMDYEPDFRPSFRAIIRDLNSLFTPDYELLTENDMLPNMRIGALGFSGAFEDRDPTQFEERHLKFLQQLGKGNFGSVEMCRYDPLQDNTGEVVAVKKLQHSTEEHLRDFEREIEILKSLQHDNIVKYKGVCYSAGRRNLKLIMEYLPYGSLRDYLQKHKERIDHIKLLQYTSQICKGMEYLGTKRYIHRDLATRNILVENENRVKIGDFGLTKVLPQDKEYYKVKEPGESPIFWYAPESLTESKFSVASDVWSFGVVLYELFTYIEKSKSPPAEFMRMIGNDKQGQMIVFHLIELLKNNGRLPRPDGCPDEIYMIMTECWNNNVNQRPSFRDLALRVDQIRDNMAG

| Structure (SMILES) | IC50 (JAK2; [1]) | IC50 (ALK; [2]) | IC50 (JAK2; JAK2 Kinase Inhibition) | IC50 (ALK; ALK Kinase Inhibition) |
| --- | --- | --- | --- | --- |
| COc1cc(C2CCN(C(=O)CN)CC2)ccc1Nc1ncc2ccc(-c3ccccc3OC)n2n1 [Example 823, 2-Amino-1-(4-{3-methoxy-4-[7-(2-methoxy-phenyl)-pyrrolo[2,1-f][1,2,4]triazin-2-ylamino]-phenyl}-piperidin-1-yl)-ethanone] | 100 to 1000 nM | < 100 nM | – | – |
| C[C@H](O)CN1CCN(c2ccc(Nc3ncc4ccc(-c5ccc(S(C)(=O)=O)cc5)n4n3)cc2)CC1 [Example 205, (S)-1-(4-{4-[7-(4-Methanesulfonyl-phenyl)-pyrrolo[2,1-f][1,2,4]triazin-2-ylamino]-phenyl}-piperazin-1-yl)-propan-2-ol] | – | – | < 100 nM | 100 to 1000 nM |
| COc1ccc(-c2ccc3cnc(Nc4ccc(N5CCC(CO)CC5)cc4)nn23)cn1 [Example 1102, (1-{4-[7-(6-Methoxy-pyridin-3-yl)-pyrrolo[2,1-f][1,2,4]triazin-2-ylamino]-phenyl}-piperidin-4-yl)-methanol] | < 100 nM | 100 to 1000 nM | – | – |
| CCN(CC)C(=O)c1ccccc1-c1ccc2cnc(Nc3ccc(N4CCN(C)CC4)cc3)nn12 [Example 407, N,N-Diethyl-2-{2-[4-(4-methyl-piperazin-1-yl)-phenylamino]-pyrrolo[2,1-f][1,2,4]triazin-7-yl}-benzamide] | – | – | < 100 nM | 100 to 1000 nM |
| COc1ccc(-c2ccc3cnc(Nc4ccc5c(c4)CN(CC(N)=O)C5)nn23)cn1 [Example 926, 2-{5-[7-(6-Methoxy-pyridin-3-yl)-pyrrolo[2,1-f][1,2,4]triazin-2-ylamino]-1,3-dihydro-isoindol-2-yl}-acetamide] | < 100 nM | 1000 to 10000 nM | – | – |
| COc1ccc(-c2ccc3cnc(Nc4ccc(N5CCC[C@@H](C(=O)N6CCN(C)CC6)C5)cc4OC)nn23)cn1 [Example 464, ((R)-1-{3-Methoxy-4-[7-(6-methoxy-pyridin-3-yl)-pyrrolo[2,1-f][1,2,4]triazin-2-ylamino]-phenyl}-piperidin-3-yl)-(4-methyl-piperazin-1-yl)-methanone] | – | – | < 100 nM | 100 to 1000 nM |
| CNC(=O)CN1CCC(c2ccc(Nc3ncc4ccc(-c5ccccc5OC)n4n3)c(OC)c2)CC1 [Example 867, 2-(4-{3-Methoxy-4-[7-(2-methoxy-phenyl)-pyrrolo[2,1-f][1,2,4]triazin-2-ylamino]-phenyl}-piperidin-1-yl)-N-methyl-acetamide] | 100 to 1000 nM | < 100 nM | – | – |
| COc1cc2c(cc1Nc1ncc3ccc(-c4ccccc4OC)n3n1)CN(C1CCN(C)CC1)C2 [Example 852, [6-Methoxy-2-(1-methyl-piperidin-4-yl)-2,3-dihydro-1H-isoindol-5-yl]-[7-(2-methoxy-phenyl)-pyrrolo[2,1-f][1,2,4]triazin-2-yl]-amine] | < 100 nM | < 100 nM | – | – |
| COc1ccccc1-c1ccc2cnc(-c3nnc(C)[nH]3)nn12 [Example 1501, 7-(2-Methoxy-phenyl)-2-(5-methyl-4H-[1,2,4]triazol-3-yl)-pyrrolo[2,1-f][1,2,4]triazine] | – | – | > 10000 nM | > 10000 nM |
| c1ccc2ncc(-c3ccc4cnc(Nc5ccc(N6CCOCC6)cc5)nn34)cc2c1 [Example 1033, (4-Morpholin-4-yl-phenyl)-(7-quinolin-3-yl-pyrrolo[2,1-f][1,2,4]triazin-2-yl)-amine] | < 100 nM | 1000 to 10000 nM | – | – |
| CC(C)(C)OC(=O)N1CCC=C(c2ccc3cnc(Nc4ccc(C5CCN(CC(N)=O)CC5)cc4)nn23)C1 [Example 675, 5-{2-[4-(1-Carbamoylmethyl-piperidin-4-yl)-phenylamino]-pyrrolo[2,1-f][1,2,4]triazin-7-yl}-3,6-dihydro-2H-pyridine-1-carboxylic acid tert-butyl ester] | < 100 nM | 1000 to 10000 nM | – | – |
| CN1CCC(c2ccc(Nc3ncc4ccc(-c5ccccc5OCC(N)=O)n4n3)cc2)CC1 [Example 1409, 2-(2-{2-[4-(1-Methyl-piperidin-4-yl)-phenylamino]-pyrrolo[2,1-f][1,2,4]triazin-7-yl}-phenoxy)-acetamide] | – | – | < 100 nM | 100 to 1000 nM |
| Fc1ncccc1-c1ccc2cnc(Nc3ccc(N4CCOCC4)cc3)nn12 [Example 1040, [7-(2-Fluoro-pyridin-3-yl)-pyrrolo[2,1-f][1,2,4]triazin-2-yl]-(4-morpholin-4-yl-phenyl)-amine] | < 100 nM | 100 to 1000 nM | – | – |

Continued, values first:

| IC50 (JAK2; [1]) | IC50 (ALK; [2]) | IC50 (JAK2; JAK2 Kinase Inhibition) | IC50 (ALK; ALK Kinase Inhibition) | Structure (SMILES) |
| --- | --- | --- | --- | --- |
| 100 to 1000 nM | < 100 nM | – | – | COc1cc(C2CCN(CC(C)(C)O)CC2)ccc1Nc1ncc2ccc(-c3ccccc3OC)n2n1 [Example 865, 1-(4-{3-Methoxy-4-[7-(2-methoxy-phenyl)-pyrrolo[2,1-f][1,2,4]triazin-2-ylamino]-phenyl}-piperidin-1-yl)-2-methyl-propan-2-ol] |
| – | – | < 100 nM | < 100 nM | COc1cc(N2CCN(C)CC2)ccc1Nc1ncc2ccc(-c3ccccc3OC)n2n1 [Example 33, [2-Methoxy-4-(4-methyl-piperazin-1-yl)-phenyl]-[7-(2-methoxy-phenyl)-pyrrolo[2,1-f][1,2,4]triazin-2-yl]-amine] |
| < 100 nM | 1000 to 10000 nM | – | – | COCCNc1cccc(-c2ccc3cnc(Nc4cccc(NC(C)=O)c4)nn23)c1 [Example 988, N-(3-{7-[3-(2-Methoxy-ethylamino)-phenyl]-pyrrolo[2,1-f][1,2,4]triazin-2-ylamino}-phenyl)-acetamide] |
| < 100 nM | < 100 nM | – | – | COc1ccccc1-c1ccc2cnc(Nc3ccc(C4CCN(CC(N)=O)CC4)c(C)c3)nn12 [Example 935, 2-(4-{4-[7-(2-Methoxy-phenyl)-pyrrolo[2,1-f][1,2,4]triazin-2-ylamino]-2-methyl-phenyl}-piperidin-1-yl)-acetamide] |
| – | – | < 100 nM | 100 to 1000 nM | C[C@H](O)CN1CCN(c2cc(F)c(Nc3ncc4ccc(-c5ccccc5N(C)S(C)(=O)=O)n4n3)cc2F)CC1 [Example 1482, N-[2-(2-{2,5-Difluoro-4-[4-((S)-2-hydroxy-propyl)-piperazin-1-yl]-phenylamino}-pyrrolo[2,1-f][1,2,4]triazin-7-yl)-phenyl]-N-methyl-methanesulfonamide] |
| – | – | < 100 nM | < 100 nM | COc1ccc(Cl)cc1-c1ccc2cnc(Nc3ccc(N4CCN(C[C@@H](C)O)CC4)cc3)nn12 [Example 207, (R)-1-(4-{4-[7-(5-Chloro-2-methoxy-phenyl)-pyrrolo[2,1-f][1,2,4]triazin-2-ylamino]-phenyl}-piperazin-1-yl)-propan-2-ol] |
| < 100 nM | 100 to 1000 nM | – | – | CN1CCOCc2cc(Nc3ncc4ccc(-c5ccccc5N(C)S(C)(=O)=O)n4n3)ccc21 [Example 616, N-Methyl-N-{2-[2-(1-methyl-1,2,3,5-tetrahydro-benzo[e][1,4]oxazepin-7-ylamino)-pyrrolo[2,1-f][1,2,4]triazin-7-yl]-phenyl}-methanesulfonamide] |
| – | – | < 100 nM | < 100 nM | C[C@H](O)CN1CCN(c2cccc(Nc3ncc4ccc(-c5cccc(Cl)c5)n4n3)c2)CC1 [Example 212, (S)-1-(4-{3-[7-(3-Chloro-phenyl)-pyrrolo[2,1-f][1,2,4]triazin-2-ylamino]-phenyl}-piperazin-1-yl)-propan-2-ol] |
| – | – | < 100 nM | > 10000 nM | COc1ccccc1NCc1ccc2cnc(Nc3ccc(N4CCOCC4)cc3)nn12 [Example 364, {7-[(2-Methoxy-phenylamino)-methyl]-pyrrolo[2,1-f][1,2,4]triazin-2-yl}-(4-morpholin-4-yl-phenyl)-amine] |
| – | – | < 100 nM | 1000 to 10000 nM | CS(=O)(=O)Nc1cccc(-c2ccc3cnc(Nc4ccc(N5CCOCC5)cc4F)nn23)c1 [Example 371, N-{3-[2-(2-Fluoro-4-morpholin-4-yl-phenylamino)-pyrrolo[2,1-f][1,2,4]triazin-7-yl]-phenyl}-methanesulfonamide] |
| 100 to 1000 nM | < 100 nM | – | – | COc1cc(CN2CCOCC2)ccc1Nc1ncc2ccc(-c3ccccc3OC)n2n1 [Example 1220, (2-Methoxy-4-morpholin-4-ylmethyl-phenyl)-[7-(2-methoxy-phenyl)-pyrrolo[2,1-f][1,2,4]triazin-2-yl]-amine] |
| – | – | < 100 nM | 100 to 1000 nM | Clc1cccc(-c2ccc3cnc(Nc4ccc(N5CCC(N6CCOCC6)CC5)cc4)nn23)c1 [Example 336, [7-(3-Chloro-phenyl)-pyrrolo[2,1-f][1,2,4]triazin-2-yl]-[4-(4-morpholin-4-yl-piperidin-1-yl)-phenyl]-amine] |
| – | – | < 100 nM | 1000 to 10000 nM | CS(=O)(=O)c1ccc(-c2ccc3cnc(Nc4cccc(N5CCOCC5)c4)nn23)cc1F [Example 193, [7-(3-Fluoro-4-methanesulfonyl-phenyl)-pyrrolo[2,1-f][1,2,4]triazin-2-yl]-(3-morpholin-4-yl-phenyl)-amine] |
| < 100 nM | 100 to 1000 nM | – | – | CS(=O)(=O)Nc1cccc(-c2ccc3cnc(Nc4ccc(C5CCN(CC(N)=O)CC5)cc4)nn23)c1 [Example 956, 2-(4-{4-[7-(3-Methanesulfonylamino-phenyl)-pyrrolo[2,1-f][1,2,4]triazin-2-ylamino]-phenyl}-piperidin-1-yl)-acetamide] |
| – | – | < 100 nM | 1000 to 10000 nM | c1cncc(-c2ccc3cnc(Nc4cc[nH]n4)nn23)c1 [Example 124, (1H-Pyrazol-3-yl)-(7-pyridin-3-yl-pyrrolo[2,1-f][1,2,4]triazin-2-yl)-amine] |
| – | – | < 100 nM | 1000 to 10000 nM | COc1ccc(-c2ccc3cnc(Nc4ccc5nc(CN6CCN(CCO)CC6)[nH]c5c4)nn23)cn1 [Example 1523, 2-(4-{6-[7-(6-Methoxy-pyridin-3-yl)-pyrrolo[2,1-f][1,2,4]triazin-2-ylamino]-1H-benzimidazol-2-ylmethyl}-piperazin-1-yl)-ethanol] |
